Columns and labels:
Assay type in all cases: binding
Details in all cases: Compound Concentration 10 µM
[1] = target: T1, panel of 442 kinases (Homo sapiens, UniProt Q8IVH8)
T1 construct: purchased KINOMEscan
T1 sequence (Q8IVH8 1-894): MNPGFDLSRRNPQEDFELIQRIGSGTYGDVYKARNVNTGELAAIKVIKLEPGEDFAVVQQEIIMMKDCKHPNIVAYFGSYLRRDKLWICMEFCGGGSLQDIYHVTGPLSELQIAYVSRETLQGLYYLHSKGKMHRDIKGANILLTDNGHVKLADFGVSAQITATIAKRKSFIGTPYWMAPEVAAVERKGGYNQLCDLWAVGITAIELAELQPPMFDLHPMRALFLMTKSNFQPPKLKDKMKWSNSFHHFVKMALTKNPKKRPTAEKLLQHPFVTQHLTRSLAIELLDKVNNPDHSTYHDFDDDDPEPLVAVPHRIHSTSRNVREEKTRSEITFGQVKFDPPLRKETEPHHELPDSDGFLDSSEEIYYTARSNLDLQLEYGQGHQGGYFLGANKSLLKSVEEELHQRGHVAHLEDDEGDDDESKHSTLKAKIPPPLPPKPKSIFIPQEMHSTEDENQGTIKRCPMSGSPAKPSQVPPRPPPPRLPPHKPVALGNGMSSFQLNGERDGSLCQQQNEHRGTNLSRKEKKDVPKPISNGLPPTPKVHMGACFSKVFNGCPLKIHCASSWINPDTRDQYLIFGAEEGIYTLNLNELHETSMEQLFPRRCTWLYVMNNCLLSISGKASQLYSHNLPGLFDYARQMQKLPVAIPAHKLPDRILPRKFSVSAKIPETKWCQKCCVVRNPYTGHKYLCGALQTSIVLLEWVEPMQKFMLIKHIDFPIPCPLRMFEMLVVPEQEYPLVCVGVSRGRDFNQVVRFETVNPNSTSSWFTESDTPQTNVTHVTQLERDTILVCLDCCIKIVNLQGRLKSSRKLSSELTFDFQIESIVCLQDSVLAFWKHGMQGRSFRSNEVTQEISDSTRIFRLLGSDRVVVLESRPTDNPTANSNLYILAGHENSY
Description: (§1) We assessed the selectivity of members of this scaffold using the KINOMEscan methodology across a near comprehensive panel of 442 kinases [[18,27]].

[2] = target: T2, panel of 442 kinases (Homo sapiens, UniProt Q9P286)
T2 construct: purchased KINOMEscan
Description: as §1

[3] = target: T3, panel of 442 kinases (Homo sapiens, UniProt Q00535)
T3 construct: purchased KINOMEscan
Description: as §1

T2 sequence (Q9P286 whole entry): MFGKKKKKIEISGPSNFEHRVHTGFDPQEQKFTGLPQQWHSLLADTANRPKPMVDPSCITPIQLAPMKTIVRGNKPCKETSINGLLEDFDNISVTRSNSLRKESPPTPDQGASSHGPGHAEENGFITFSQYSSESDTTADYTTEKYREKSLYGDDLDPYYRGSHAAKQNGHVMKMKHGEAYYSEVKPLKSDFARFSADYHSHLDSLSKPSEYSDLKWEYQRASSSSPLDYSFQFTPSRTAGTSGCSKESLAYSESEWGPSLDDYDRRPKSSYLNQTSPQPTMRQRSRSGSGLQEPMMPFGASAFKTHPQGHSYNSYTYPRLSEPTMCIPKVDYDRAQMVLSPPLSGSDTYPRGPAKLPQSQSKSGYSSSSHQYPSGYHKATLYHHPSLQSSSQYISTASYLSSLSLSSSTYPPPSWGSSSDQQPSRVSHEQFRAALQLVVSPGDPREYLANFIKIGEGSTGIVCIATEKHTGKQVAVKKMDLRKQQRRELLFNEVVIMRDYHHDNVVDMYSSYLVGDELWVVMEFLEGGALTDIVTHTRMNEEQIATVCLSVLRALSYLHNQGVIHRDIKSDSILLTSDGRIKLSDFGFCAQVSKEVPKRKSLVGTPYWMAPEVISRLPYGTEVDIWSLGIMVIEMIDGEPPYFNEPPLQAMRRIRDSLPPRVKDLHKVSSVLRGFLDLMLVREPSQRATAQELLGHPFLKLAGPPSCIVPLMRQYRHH
T3 sequence (Q00535 whole entry): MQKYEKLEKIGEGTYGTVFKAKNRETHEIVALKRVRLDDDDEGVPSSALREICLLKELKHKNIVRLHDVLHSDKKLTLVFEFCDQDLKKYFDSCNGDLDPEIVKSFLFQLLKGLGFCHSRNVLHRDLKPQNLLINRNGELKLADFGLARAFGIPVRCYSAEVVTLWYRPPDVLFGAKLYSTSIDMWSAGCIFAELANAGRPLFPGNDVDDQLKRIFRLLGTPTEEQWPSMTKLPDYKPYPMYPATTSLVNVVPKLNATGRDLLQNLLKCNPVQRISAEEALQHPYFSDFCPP

Structure (SMILES)	KINOMEscan: MAP4K3 [1]	KINOMEscan: PAK7 [2]	KINOMEscan: CDK5 [3]
COc1cc(C(=O)N2CCC(N3CCN(C)CC3)CC2)ccc1Nc1ncc2c(n1)N(C)c1ccccc1C(=O)N2C [15 (LRRK2-IN-1)]	71	96	81
COc1cc(C(=O)N2CCC(N3CCN(C)CC3)CC2)ccc1Nc1ncc2c(n1)N(C1CCCC1)c1ccccc1C(=O)N2C [Compound 25, 11-cyclopentyl-2-((2-methoxy-4-(4-(4-methylpiperazin-1-yl)piperidine-1-carbonyl)phenyl)amino)-5-methyl-5H-benzo[e]pyrimido[5,4-b][1,4]diazepin-6(11H)-one]	100	100	94
CCOc1cc(C(=O)N2CCC(N3CCN(C)CC3)CC2)ccc1Nc1ncc2c(n1)N(C1CCCC1)c1ccccc1C(=O)N2C [Compound 26]	98	100	100

Reference: publication PMC3914206
